Measurements published in article PMC9009073, “Transcriptome Analysis of Stephania tetrandra and Characterization of Norcoclaurine-6-O-Methyltransferase Involved in Benzylisoquinoline Alkaloid Biosynthesis” (Frontiers in Plant Science, 2022).

Tested on: St6OMT2
Test: UPLC quantification of (S)-coclaurine formed; Hill function fit
Assay type: biochemical, Stephania tetrandra
Settings: co-substrate S-adenosyl-L-methionine (1 mM in standard assay); 37°C; PBS; substrate 10–200 μM

Km: 28.2 µM
SMILES: Oc1ccc(C[C@@H]2NCCc3cc(O)c(O)cc32)cc1 [(S)-norcoclaurine]
